Data: EP1157997A1, “NOVEL DIPEPTIDE COMPOUND AND MEDICINAL USE THEREOF” (JAPAN ENERGY CORPORATION, priority 1999, dated 2001)

Tests used:
in vitro = in vitro ADME; conditions: human, plasma
Procedure: Freezed human plasma (HFFPP100) was used after thawing. Powder of human alpha 1-acid glycoprotein (supplied by SIGMA Co., hereinafter abbreviated to AAG) was dissolved in a phosphate buffer solution (PBS, pH 7.0) to a concentration of 1 mg/ml. Drug solutions were prepared by dissolving the compounds synthesized in Example 1 and Reference Example 1 in dimethylsulfoxide in various concentrations.
The drug solutions (10 µl, each) with different concentrations were added to 990 µl the plasma or AAG solutions prepared above, stirred well and incubated for 18 hours at 37°C to equilibrate binding proteins. All amount of the solution was transferred to Micropartition Devices (Centrifree® , Millipore Co.) and filtered by centrifugation at 1500 x g for 20 minutes (using TOMY CX-210 high-speed cooling centrifugal machine). 200 µl of the filtrate was directly subjected to HPLC (Type: HITACHI D-7000, column: COSMOSIL (4.6* 250 mm, manufactured by Nacalai Tesque Co., Ltd.). The HPLC analysis was carried out by using a 59:41 (v/v) water-acetonitrile mixture containing 0.1% trifluoroacetic acid (TFA) as a mobile phase and measuring absorbance at 210 nm. The quantitative determination of unbound drug concentration was carried out based on the absolute calibration curve method using a calibration line obtained from the analysis of a standard sample which contains the drug at a known concentration. […]

[1] = test system: HIV virus (HIV-1 IIIB strain); assay: Anti-HIV activity, cytopathic effect in CEM-SS cells by XTT dyeing, in the presence of 50% human blood serum; type: cell-based; conditions: Human immunodeficiency virus 1, IIIB, in the presence of 50% human blood serums, read-out: IC50 value in an anti-virus test
Procedure: The anti-HIV activity of the compounds synthesized Examples 1-15 and Reference Examples 1-4 was measured according to the method reported by O. S. Weislow et al. (J. Natl. Cancer Inst. 81, 577-586, 1989) using CEM-SS cells as host cells and HIV virus (HIV-1 IIIB strain) (see T. Mimoto et al., J. Med. Chem., 42, 1789-1802, 1999, etc.).
Specifically, the compounds synthesized Examples 1-15 and Reference Examples 1-5 in various concentrations were added to a culture medium on 96-well microtiter plates. Human blood serum was added to a final concentration of 50%, then HIV infected CEM-SS cells was added, followed by incubation in a CO2 atmosphere at 37°C for 6 days. The cytopathic effect induced by HIV-1 IIIB was measured by tetrazolium dye XTT dyeing method to evaluate the 50% inhibitory concentration (IC50).

| fraction unbound at 18 h, 1 µM (in vitro) | IC50 [1] | Structure (SMILES) |
| --- | --- | --- |
| 0.029 | 6 ng/mL | COc1ccc(C[C@H](NC(=O)c2cccc(O)c2C)[C@H](O)C(=O)N2CSC(C)(C)[C@H]2C(=O)NCc2ccccc2C)cc1 [Example 1, (R)-N-(2-methylbenzyl)-3-[(2S,3S)-2-hydroxy-3-(3-hydroxy-2-methylbenzoyl)amino-4-(4-methoxyphenyl)butanoyl]-5,5-dimethyl-1,3-thiazolidine-4-carboxamide] |
| 0.013 |  | Cc1ccccc1CNC(=O)[C@H]1N(C(=O)[C@@H](O)[C@H](Cc2ccccc2)NC(=O)c2cccc(O)c2C)CSC1(C)C [Reference Example 1, reference compound] |
